Assay results taken from ChEMBL document CHEMBL1765043, “New synthetic triterpenoids: potent agents for prevention and treatment of tissue injury caused by inflammatory and oxidative stress” (J Nat Prod, 2011).

test system: RAW264.7; experiment: Antiinflammatory activity against IFN-gamma, TNF-alpha and IL-1-stimulated mouse RAW264.7 cells assessed as inhibition of cellular iNOS synthesis; type: functional, cell-based

Row | IC50 [µM] | Structure (SMILES)
1 | 0.2 | CC1(C)CC[C@]2(C(=O)O)CC[C@]3(C)[C@H](C(=O)C=C4[C@@]5(C)C=CC(=O)C(C)(C)[C@@H]5CC[C@]43C)[C@@H]2C1
2 | 6 | C[C@H]1[C@H](C)CC[C@]2(C(=O)O)CC[C@]3(C)C(=CC[C@@H]4[C@@]5(C)C=CC(=O)C(C)(C)[C@@H]5CC[C@]43C)[C@H]12
3 | 17.6 | C[C@H]1[C@H](C)CC[C@]2(C(=O)O)CC[C@]3(C)C(=CC(=O)[C@@H]4[C@@]5(C)C=CC(=O)C(C)(C)[C@@H]5CC[C@]43C)[C@H]12
